Experiments:
[1] = test system: eosinophils in human whole blood; test: PGD2-induced eosinophil cell shape assay in human whole blood; type: cell-based; details: 10 nM PGD2 final, flow cytometry
Protocol: The Compounds of Formula (I) were diluted in dimethylsulphoxide so that the total volume of dimethylsulfoxide was kept constant at 2% dimethylsulphoxide (Me2SO). Serial dilutions of 200 μM to 0.09 μM were prepared. Samples of 90 μl of human blood from healthy volunteers (Centre de Transfusion Sanguine de Genève) were pre-incubated in polypropylene Falcon tubes (BD 352063) for 20 minutes in a water bath at 37° C. with 10 μl of diluted compounds. For CRTH2 activation, 100 μl PGD2 (Cayman 12010) at 20 nM was added (10 nM final) to each tube and cells were maintained at 37° C. For negative control cells were treated with PBS. After 10 minutes, cell activation was stopped with 120 μl Formaldehyde 10% (4% final, Fluka 41650) and cells were rested for 10 minutes at room temperature. Fixed cells were transferred into polypropylene tubes and then treated for 1 hour in a water bath at 37° C. with 2 ml of Triton-Surfact-Amps X-100 (Pierce 28314) at 0.166% (0.13% Triton final). After several washes with PBS (red cells lysed progressively during washes, two washes are necessary), cells were analyzed by flow cytometry on a FACSCalibur. In one embodiment, the compounds of Formula (I) of the present invention are capable of blocking the cell shape change of eosinophils induced by PGD2 in Whole Blood.

[2] = molecular target: T1, CRTH2 (Homo sapiens, UniProt Q9Y5Y4); test: Radioligand binding Scintillation Proximity Assay ([3H]PGD2, hCRTH2-CHO cell membranes); parameters: host or cells: CHO cells; details: 1.5 nM [3H]PGD2, hCRTH2-CHO cell membranes, SPA
T1 sequence (Q9Y5Y4 1-395): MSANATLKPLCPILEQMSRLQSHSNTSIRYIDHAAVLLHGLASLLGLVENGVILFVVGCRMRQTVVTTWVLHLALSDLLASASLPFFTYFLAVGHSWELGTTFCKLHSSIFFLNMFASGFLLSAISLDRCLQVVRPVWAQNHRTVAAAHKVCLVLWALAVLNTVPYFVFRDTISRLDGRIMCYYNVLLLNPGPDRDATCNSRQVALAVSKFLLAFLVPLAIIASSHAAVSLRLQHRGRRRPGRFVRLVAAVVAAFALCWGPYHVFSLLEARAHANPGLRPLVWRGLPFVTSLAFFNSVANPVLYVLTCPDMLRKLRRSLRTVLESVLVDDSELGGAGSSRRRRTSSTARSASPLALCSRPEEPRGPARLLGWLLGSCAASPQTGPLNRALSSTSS
In short: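 SPA competition binding at room temperature, 90 min with agitation: 1.5 nM [3H]PGD2, 10-50 μg/ml hCRTH2-CHO membrane protein, WGA SPA beads, HEPES pH 7.4 with 10 mM MnCl2, 1% DMSO. Non-specific binding defined with 10 μM PGD2; scintillation counting.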

[3] = molecular target: T1, CRTH2; test: Cellular Dielectric Spectroscopy (CHO-CRTH2 cells); type: cell-based; parameters: expressed in transfected cells; host or cells: CHO-CRTH2 cells; details: for IC50: antagonist mode, fixed concentration of PGD2 (EC80); for EC50 / Emax: partial agonists, agonist activity without PGD2
Protocol: Cellular Dielectric Spectroscopy (CDS) is a label-free technology based on the measurement of complex impedance changes (delta Z or dZ). Impedance (Z) is related to the ratio of voltage to current as described by Ohm's law (Z=V/I). In order to measure the changes in impedance that occur in response to receptor stimulation, mammalian cells are seeded onto a custom 96-well microliter plate that contains electrodes at the bottom of each well. Key contributors to the impedance measurements are changes in cell-substrate adherence, changes in cell shape and volume, and changes in cell-cell interactions. These factors individually or collectively affect the flow of current, influencing the magnitude and characteristics of the signal measured. G-protein coupled receptors ligand-induced activity can be measured using this technology and specific G protein coupling can be identified. Activities of reference agonist and antagonist molecules of CRTH2 have been measured using this assay and similar results were obtained compared to different functional assays.
CHO-CRTH2 cells are cultured in HAM's F12 (Lonza, Switzerland) supplemented with 10% foetal calf serum (PAA, Australia) and 400 μg/ml Geneticin. 100000 cells/well are seeded in standard 96W Microplates (MDS Analytical Technologies) and incubated at 37° C. in 5% CO2 for 24 hours. Cells are washed twice with 135 μl of cell key buffer (Hank's Balanced Salt Solution 1× (HBSS) (Invitrogen) supplemented with 10 mM HEPES pH 7.4 in presence of 1% DMSO). For EC50 determination. 15 μl of increasing concentration of Compounds of Formula (I) diluted in cell key buffer are added to the cells and agonist activity is then recorded for 25 minutes. […] Results are expressed as the amplitude between the highest and the lowest signal produced (max-min). Basal and maximum activities are measured, respectively in absence or presence of PGD2 (EC80).

[4] = molecular target: T1, CRTH2; test: [35S]GTPγS binding assay (CHO-CRTH2 cell membranes); type: biochemical; parameters: expressed in transfected cells; host or cells: CHO-CRTH2 cells; details: antagonist mode, fixed concentration of PGD2 (EC80)
Protocol: Adherent CHO cells expressing hCRTH2 (Euroscreen, Belgium) were cultured in 225 cm^2 cell culture flasks (Corning, USA) in 30 ml of medium. After two rinses of phosphate buffered saline (PBS), cells were harvested in 10 ml of PBS containing 1 mM EDTA, centrifuged at 500×g for 5 min at 4° C. and frozen at −80° C. The pellet was re-suspended in 50 mM Tris-HCl, pH 7.4, 2 mM EDTA, 250 mM Sucrose, containing protease inhibitor cocktail tablets, (Complete EDTA-free, Roche, Germany) and incubated 30 min at 4° C. Cells were disrupted by nitrogen cavitation (Parr Instruments, USA) at 4° C. (800 p.s.i. for 30 min), and centrifuged at 500×g for 10 min at 4° C. Pellet containing nuclei and cellular debris was discarded and supernatant was centrifuged 60 min at 4° C. at 45000×g. Membrane pellet was re-suspended in storage buffer (10 mM HEPES/KOH pH 7.4, 1 mM EDTA, 250 mM sucrose, protease inhibitor cocktail tablets) using Dounce homogenization and frozen in liquid nitrogen, and stored at −80° C.
The [^35S]GTPγS assay measures the increase in guanine nucleotide exchange at G-proteins in cell membranes, resulting from agonist (PGD2) binding to CRTH2. This process can be monitored in vitro by incubating cell membranes containing G-proteins and CRTH2 with GDP and [^35S]GTPγS, a radiolabeled, hydrolysis-resistant analogue of GTP (see, Harrison et al., Life Sciences 74, 489-508, 2003). The addition of a Compounds of Formula (I) results in binding to CRTH2 and thus in an inhibition of agonist binding, which can be monitored as inhibition of the stimulation of GTP/GDP exchange.
Briefly, Compounds of Formula (I) are incubated in 96-well scintillating white polystyrene plates (Perkin Elmer, USA) in a final volume of 200 μl containing 20 mM HEPES/KOH pH 7.4, 3 mM MgCl2, 10 μg/ml Saponin, 5 μM GDP, 75 mM NaCl and 2% of dimethylsulphoxide (DMSO). Reaction is triggered by the addition of 5-10 μg of CHO-CRTH2 cell membranes and 0.15 nM [^35S]GTPγS. After 60 min incubation at 30° C., reaction is stopped by centrifugation at 700×g, at 4° C. for 10 minutes and supernatant is removed. The radioactivity coming from the [^35S]GTPγS bound on centrifuged cell membranes is recorded using a 1450 Micro-beta scintillation counter. For IC50 determination, increasing concentrations of compounds are incubated in presence of a fixed concentration of PGD2 (EC80). For EC50 measurements, compounds are incubated without addition of PGD2. Basal [^35S]GTPγS activity is determined without addition of any ligands or compounds. 100% [^35S]GTPγS activity is measured by the addition of 1 μM of PGD2.

[5] = test system: OVA-induced lung eosinophilia in mice; test: OVA-induced lung eosinophilia in mice; type: in vivo, BALB/c mice; details: BAL fluid, dose 1 mg/kg
Protocol: BALB/c mice (6-8 weeks old) were immunized with ovalbumin (10 μg i.p) on day 0 and 7. In order to elicit a local inflammatory response in the lung, mice were challenged between day's 15-17 with a nebulised solution of ovalbumin (10 μg/ml; De Vilibiss Ultraneb 2000, once daily for 30 min during the 3 days). On each separate day between 15 and 17 each animal received via oral gavage the test compound, at t−1 h and t+7 h with respect to OVA exposure at t=0 h. Eight hours after the final OVA challenge, bronchoalveolar lavage (BAL) was then carried out. Total cell numbers in the BAL fluid samples were measured using a haemocytometer. Cytospin smears of the BAL fluid samples were prepared by centrifugation at 1200 rpm for 2 min at room temperature and stained using a DiffQuik stain system (Dade Behring) for differential cell counts. […]

Row | IC50 [1] | IC50 [2] | melting point | SMILES | also measured
1 | 100 nM | 3 nM | – | CCc1ccc(S(C)(=O)=O)cc1C#Cc1cc(Cl)ccc1OCC(=O)O [Example 100, (4-chloro-2-{[2-ethyl-5-(methylsulfonyl)phenyl]ethynyl}phenoxy)acetic acid] | IC50 [3]: 23 nM
2 | 679 nM | 28 nM | – | O=C(O)COc1ccc(Cl)cc1C#Cc1ccc(CO)cc1F [Example 26, (4-chloro-2-{[2-fluoro-4-(hydroxymethyl)phenyl]ethynyl}phenoxy)acetic acid] | IC50 [4]: 140 nM
3 | – | 29 nM | 80 to 95 °C | COC1(C)c2ccc(C#Cc3cc(Cl)ccc3OCC(=O)O)cc2S(=O)(=O)C1(C)C (stereo not drawn) [Example 162, {4-chloro-2-[(3-methoxy-2,2,3-trimethyl-1,1-dioxido-2,3-dihydro-1-benzothien-6-yl)ethynyl]phenoxy}acetic acid] | –
4 | – | 2 nM | 141 to 143 °C | CC(C)CS(=O)(=O)c1ccc(F)c(C#Cc2cc(Cl)ccc2OCC(=O)O)c1 [Example 105, (4-chloro-2-{[2-fluoro-5-(isobutylsulfonyl)phenyl]ethynyl}phenoxy)acetic acid] | –
5 | – | 3 nM | 165 to 169 °C | CCS(=O)(=O)c1ccc(F)c(C#Cc2cc(Cl)ccc2OCC(=O)O)c1 [Example 104, (4-chloro-2-{[5-(ethylsulfonyl)-2-fluorophenyl]ethynyl}phenoxy)acetic acid] | –
6 | 95 nM | 14 nM | – | CS(=O)(=O)c1ccc(F)c(C#Cc2cc(C#N)ccc2OCC(=O)O)c1 [Example 58, (4-cyano-2-{[2-fluoro-5-(methylsulfonyl)phenyl]ethynyl}phenoxy)acetic acid] | IC50 [4]: 34 nM; EC50 [3]: 6 nM; Emax [3]: 32%
7 | – | 2 nM | 125 to 128 °C | COCCS(=O)(=O)c1ccc(F)c(C#Cc2cc(Cl)ccc2OCC(=O)O)c1 [Example 106, [4-chloro-2-({2-fluoro-5-[(2-methoxyethyl)sulfonyl]phenyl}ethynyl)phenoxy]acetic acid] | –
8 | 95 nM | 9 nM | – | CS(=O)(=O)c1ccc(F)c(C#Cc2cc(Cl)ccc2OCC(=O)O)c1 [Example 48, (4-chloro-2-{[2-fluoro-5-(methylsulfonyl)phenyl]ethynyl}phenoxy)acetic acid] | IC50 [4]: 15 nM; IC50 [3]: 9 nM; EC50 [3]: 1 nM; Emax [3]: 12%
9 | 77 nM | 7 nM | – | Cc1ccc(S(=O)(=O)N(C)C)cc1C#Cc1cc(Cl)ccc1OCC(=O)O [Example 83, [4-chloro-2-({5-[(dimethylamino)sulfonyl]-2-methylphenyl}ethynyl)phenoxy]acetic acid] | –
10 | – | – | – | C[C@@H]1C[C@H]2[C@@H]3CCC4=CC(=O)C=C[C@]4(C)[C@@]3(F)[C@@H](O)C[C@]2(C)[C@@]1(O)C(=O)CO [Dexamethasone] | % inhibition eosinophils (mean ± s.e.m.) [5]: 90 ± 10%; % inhibition total cells (mean ± s.e.m.) [5]: 88 ± 11%
11 | 64 nM | 9 nM | – | Cc1ccc(S(C)(=O)=O)cc1C#Cc1cc(Cl)ccc1OCC(=O)O [Example 33, (4-chloro-2-{[2-methyl-5-(methylsulfonyl)phenyl]ethynyl}phenoxy)acetic acid] | –
12 | 88 nM | 5 nM | – | COCCNS(=O)(=O)c1ccc(C)c(C#Cc2cc(Cl)ccc2OCC(=O)O)c1 [Example 117, {4-chloro-2-[(5-{[(2-methoxyethyl)amino]sulfonyl}-2-methylphenyl)ethynyl]phenoxy}acetic acid] | –
